# Read-outs that look alike come from different tables or passages of the source.
# Legend:
# murine brown adipocytes [1] = experiment: Specific [11C]SNAP-7941 binding to brown adipocytes (competition); assay type: cell-based; details: 2 μM unlabeled compound; for [11C]SNAP-7941 binding per well referring to baseline: 30 min pre-treatment, baseline (vehicle) = 100% binding/well, mean ± SD
# Experimental: (§1) Cells were maintained under standard conditions in a humidified incubator (37°C, 5% CO2). CHO-K1 cells expressing the human adrenergic beta-3 receptor (CHO-K1-ADRB3) were purchased from PerkinElmer (ValiScreen® ES-035-C). CHO-K1-ADRB3 were grown using Ham's F12 (Nut Mix) supplemented with 10% FCS, 2 mM L-glutamine, penicillin (100 Units/mL), streptomycin (100 μg/mL), and 0.4 mg/mL geneticin. CHO-K1 cells were a generous gift from Prof. Karl Norbert Klotz (University Würzburg, Germany) and cultured likewise without selection antibiotics. Immortalized murine brown pre-adipocytes were provided by the Department of Medicine III (Medical University of Vienna, Austria) and cultured in high glucose Dulbecco's Modified Eagle's Medium (DMEM) supplemented with 10% FBS, 1 mM pyruvate, penicillin (100 Units/mL) and streptomycin (100 μg/mL). When cells were confluent, differentiation to brown adipocytes was induced for 48 h using 1.72 μM insulin (human recombinant), 1 nM thyroid hormone (T3), 0.5 mM 3-isobutyl-1-methylxanthine (IBMX), 125 nM indomethacin, and 1 μM dexamethasone. After induction, the medium was changed to post-differentiation medium (high glucose DMEM) supplemented with 10% FBS, 1 mM pyruvate, penicillin (100 Units/mL), streptomycin (100 μg/mL), 1.72 μM insulin, and 1 nM T3. The post-differentiation medium was replenished every second day. Brown adipocytes were used for experimental investigations 4–6 days after induction. Oil Red O staining was performed according to the manufacturer's instructions. Counterstaining was performed using haematoxylin.
# Brown pre-adipocytes were seeded, grown to confluence and differentiated in six-well plates as described above. Thirty minutes prior to the experiment, maintenance medium (cf. 2.1) was discarded and replaced with respective serum- and additive-free medium to avoid plasma protein binding of the PET-tracer. Cell starving, as performed for [^18F]FDG uptake measurements, was not indicated for [^11C]SNAP-7941 binding experiments. […] Baseline was determined using DMSO or ethanol, respectively. Sample processing, data analysis and statistical testing were performed as described in [^18F]FDG Uptake Experiments: Effects of MCHR1 Ligands on Brown Adipocyte Activation.
# murine brown adipocytes [2] = experiment: [18F]FDG uptake in brown adipocytes (brown adipocyte activation); assay type: cell-based; details: 30 min pre-treatment, baseline (vehicle) = 100% uptake/well, mean ± SD
# Experimental: as §1
# Brown pre-adipocytes were seeded, grown to confluence and differentiated in 6-well plates as described in section General. Cell starving was performed for 1 h using unsupplemented, glucose-free DMEM. […] [^18F]FDG uptake was performed for 50 min at 37°C (humidified atmosphere, 5% CO2). Supernatant was taken off, cells were washed with ice-cold PBS and finally trypsinized. Radioactive cell fractions were gamma counted (2480 Wizard^2, PerkinElmer) and normalized to percentage uptake per well. [^18F]FDG uptake under baseline conditions refers to 100% uptake. Three independent experiments were performed in triplicates. Statistical analysis was performed using an unpaired, two-tailed t-test.
# MCHR1 = target: MCHR1; parameters: method as in PMID 28808288; details: previously described; ref [28]; cited from earlier work
# CHO-K1-ADRB3 cells = target: T1, CHO-K1-ADRB3 cells (Homo sapiens, UniProt P13945); experiment: Real-time kinetic displacement of [125I]Iodocyanopindolol binding (LigandTracer); assay type: cell-based; details: 20 μM non-radioactive compound applied after 60 min association phase
# T1 construct: host or cells: CHO-K1
# Experimental: 2.5 × 10^5 cells (CHO-K1, CHO-K1-ADRB3) per cell culture dish were seeded 2 days prior to the experiment and incubated in an inclined position to allow an adherent cell pole at one side of the cell dish. Cell dish preparation was performed as previously described ([32], [33]). Real-time kinetic radioligand binding measurements were performed using a dedicated device for low energy gamma radiation (LigandTracer® Gray Technology, Ridgeview, Sweden). The assay protocol compromised consecutive radioactivity measurements of the target region (cell pole) and of the opposite pole of the petri dish, where no cells were seeded (background signal). Radioactivity was counted in each region for 3 s with a delay of 2 s over the time course of the experiment. Raw counts per second (cps) of the target region were corrected for background signal and for radioactive decay. Displacement of [^125I]Iodocyanopindolol binding was conducted after 1 h association phase of radioligand binding by consecutively applying rising concentrations of SNAP-7941 and FE@SNAP. The same volume of ethanol was added as vehicle control. Experiments were performed on at least three different days.
# [3] = target: T2, human adrenergic beta-3 receptor (ADRB3) (Homo sapiens, UniProt P13945); experiment: Competitive binding assay, CHO-K1-ADRB3 cell membranes, [3H]CGP-12177 radioligand; details: for Ki: CHO-K1-ADRB3 membranes, 5 nM [3H]CGP-12177, 90 min 27°C, read-out: Ki ADRB3 experimental; for ADRB3/ MCHR1 (ratio of Ki values): selectivity toward MCHR1, ADRB3 Ki measured, MCHR1 Ki from ref [28]
# T2 construct: host or cells: CHO-K1
# Experimental: CHO-K1-ADRB3 cell membranes were prepared from 175 cm^2 cell culture flasks, when 80% confluence was reached. All procedures were performed at 4°C. Cells were scraped off using ice-cold lysis buffer (10 mM Tris-HCl pH 7.4, 1 mM EDTA) and protease inhibitor cocktail was added according to the manufacturer's instructions (Sigma-Aldrich, St. Louis, USA). The cell suspension was homogenized using cannulas (29 G) and centrifuged for 10 min at 1,000 × g. The obtained supernatant was centrifuged for 30 min at 100,000 × g. Subsequently, the pellet was suspended using 50 mM Tris-HCl pH 7.4 and aliquoted. Aliquots were shock-frozen in liquid nitrogen and stored at −80°C until usage. Protein concentration of the cell membrane suspension was determined using BCA Protein Assay Kit (Thermo Scientific, Waltham, USA).
# All stated concentrations refer to the final assay volume of 500 μL buffer (25 mM HEPES pH 7.4, 1 mM EDTA, 0.5% BSA). Competitive binding assays were performed using 13.6 ng/μL ADRB3 expressing CHO-K1 cell membrane suspension (cf. 2.3) and 5 nM [^3H]CGP-12177 as the respective radioligand. […] Nonspecific binding was determined using 10 μM carazolol. Total binding was determined in the presence of 1% respective solvent. Incubation was performed for 90 min at 27°C. Filtration through GF/B filters (Whatman®, presoaked in 0.05% PEI) was performed using a cell harvester (Brandel®, Gaithersburg, MD, USA) and was followed by two washing steps using ice-cold wash buffer (10 mM HEPES, 500 mM NaCl, pH 7.4). Filter pieces containing receptor-bound radioactivity were shaken for 30 min in scintillation cocktail (Ultima Gold™, PerkinElmer, Waltham, USA) before liquid scintillation counting (Hidex 300 SL, Turku, Finland). IC50 fitted binding curves were generated using the GraphPad Software 5.0 (La Jolla, CA, USA) using nonlinear regression.
# ADRB3 [4] = target: ADRB3; parameters: method as in PMID 20590599; details: assumed for Ki calculation; ref [31]; cited from earlier work
# ADRB3 [5] = target: ADRB3; parameters: method as in PMID 14730417, PMID 8719421, PMID 7903415, PMID 2570461; details: literature values for standard compounds; ref [43], [45]–[47]; read-out: Ki ADRB3 reference; cited from earlier work
# T2 sequence (P13945 whole entry): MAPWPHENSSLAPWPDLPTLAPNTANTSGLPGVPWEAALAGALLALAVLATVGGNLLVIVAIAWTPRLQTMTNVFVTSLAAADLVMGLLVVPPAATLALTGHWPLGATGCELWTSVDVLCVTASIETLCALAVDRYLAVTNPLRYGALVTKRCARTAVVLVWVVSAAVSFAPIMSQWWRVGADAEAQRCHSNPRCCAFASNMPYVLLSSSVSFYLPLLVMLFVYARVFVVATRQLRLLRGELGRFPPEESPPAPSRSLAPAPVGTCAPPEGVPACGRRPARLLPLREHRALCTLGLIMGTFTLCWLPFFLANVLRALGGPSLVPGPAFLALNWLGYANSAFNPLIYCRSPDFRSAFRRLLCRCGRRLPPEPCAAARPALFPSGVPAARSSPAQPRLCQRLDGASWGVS
# T1 sequence (P13945 whole entry): as above
Effect on [125I]Iodocyanopindolol binding to CHO-K1-ADRB3 cells (CHO-K1-ADRB3 cells),Ki ([3]; n = 3 in triplicates) [nM],ADRB3/ MCHR1 (ratio of Ki values) [3],SMILES,[11C]SNAP-7941 binding per well referring to baseline (murine brown adipocytes [1]) [%],[18F]FDG uptake referring to baseline (murine brown adipocytes [2]; 2 μM compound),Ki (MCHR1) [nM],[18F]FDG uptake referring to baseline (murine brown adipocytes [2]; 20 μM compound) [%],also measured
,,,"CC(C)NC[C@H](O)COc1cccc2ccccc12.Cl [(S)-propranolol, (S)-propranolol hydrochloride]",95.8 ± 8.6,did not alter,,,[11C]SNAP-7941 binding per well referring to baseline (murine brown adipocytes [1]; listed as propranolol): did not alter
,,,"C[C@H](Cc1ccc2c(c1)OC(C(=O)[O-])(C(=O)[O-])O2)NC[C@H](O)c1cccc(Cl)c1.[Na+].[Na+] [CL 316,243, reference compound]",91.1 ± 3.6,137.7 ± 12.2%,,,
did not affect binding,65100 ± 2900,"~6,523",COCC1=C(C(=O)OCCF)C(c2ccc(F)c(F)c2)N(C(=O)NCCCN2CCC(c3cccc(NC(C)=O)c3)CC2)C(=O)N1 (centres unmarked) [FE@SNAP],,,9.98 ± 1.12,73.03 ± 13.6,
did not affect binding,14500 ± 300,"~3,708",COCC1=C(C(=O)OC)[C@H](c2ccc(F)c(F)c2)N(C(=O)NCCCN2CCC(c3cccc(NC(C)=O)c3)CC2)C(=O)N1 [SNAP-7941],77.1 ± 5.0,,3.91 ± 0.74,63.24 ± 2.6,Reduction of [11C]SNAP-7941 binding (murine brown adipocytes [1]; versus baseline): 22.9 ± 5.0%
,,,"CC(C)(C)NCC(O)COc1cccc2[nH]c(=O)[nH]c12 (stereo not drawn) [[^3H]CGP-12177, 5,7-[^3H](-)CGP-12177]",,,,,Kd (ADRB3 [4]): 109 nM
,,,"CC(C)NCC(O)COc1cccc2[nH]c3ccccc3c12 (centres unmarked) [carazolol, reference compound]",,,,,Ki (ADRB3 [5]): 2 nM; Ki ([3]; three independent experiments in triplicates): 2 ± 0.3 nM

# Reference: paper PMC6581027, “In vitro Radiopharmaceutical Evidence for MCHR1 Binding Sites in Murine Brown Adipocytes” (Frontiers in Endocrinology, 2019)
